Assay results taken from the NIST ThermoML archive (doi:10.1016/j.jct.2009.05.004).

Assay: mn = molality of the nth substance listed, in mol/kg
Conditions: Liquid, Vibrating tube method

[Br-].[Br-].[Zn+2] [zinc bromide] + CCO
Conditions	mass density [kg/m3]
333.15 K, 25621 kPa, m1 = 0.3043	825.37
333.15 K, 29810 kPa, m1 = 0.4384	848.46
333.15 K, 29875 kPa, m1 = 1.49	995.4
333.15 K, 29941 kPa, m1 = 0.05681	791.79
333.15 K, 34256 kPa, m1 = 0.3043	832.31
333.15 K, 34920 kPa, m1 = 0.4384	852.42
333.15 K, 34965 kPa, m1 = 1.49	999.47
333.15 K, 39957 kPa, m1 = 1.49	1003.26
333.16 K, 1604 kPa, m1 = 1.887	1020.71
333.16 K, 5024 kPa, m1 = 0.3043	806.15
333.16 K, 10325 kPa, m1 = 0.3043	811.46
333.16 K, 14730 kPa, m1 = 0.4384	835.35
333.16 K, 14913 kPa, m1 = 0.9305	905.9
333.16 K, 15014 kPa, m1 = 0.05681	778.76
333.16 K, 29941 kPa, m1 = 0.3043	828.93
333.16 K, 30014 kPa, m1 = 1.887	1047.6
333.16 K, 35068 kPa, m1 = 0.05681	795.79
333.16 K, 39745 kPa, m1 = 0.3043	836.38
333.16 K, 39787 kPa, m1 = 0.1696	816.47
333.16 K, 39824 kPa, m1 = 0.4384	855.99
333.17 K, 1074 kPa, m1 = 0.4384	821.64
333.17 K, 25080 kPa, m1 = 0.9305	915
333.17 K, 39803 kPa, m1 = 0.9305	926.52
333.17 K, 39921 kPa, m1 = 0.05681	799.36
333.18 K, 9721 kPa, m1 = 0.1696	791.08
333.18 K, 14944 kPa, m1 = 0.1696	796.06
333.18 K, 19908 kPa, m1 = 0.1696	800.57
333.18 K, 19971 kPa, m1 = 1.887	1038.86
333.18 K, 25143 kPa, m1 = 1.887	1043.47
333.18 K, 29806 kPa, m1 = 0.1696	808.92
333.18 K, 34946 kPa, m1 = 0.1696	812.92
333.2 K, 24905 kPa, m1 = 0.1696	804.89
353.12 K, 1215 kPa, m1 = 0.1696	762.79
353.12 K, 4885 kPa, m1 = 0.9305	876.1
353.12 K, 24736 kPa, m1 = 0.4384	827.02
353.12 K, 29724 kPa, m1 = 0.4384	831.58
353.12 K, 34818 kPa, m1 = 0.1696	796.87
353.12 K, 40086 kPa, m1 = 0.9305	910.04
353.13 K, 19976 kPa, m1 = 0.4384	822.41
353.13 K, 29922 kPa, m1 = 1.887	1029.35
353.13 K, 34919 kPa, m1 = 0.9305	905.88
353.13 K, 35245 kPa, m1 = 0.05681	780.23
353.14 K, 5032 kPa, m1 = 0.3043	786.89
353.14 K, 5065 kPa, m1 = 0.05681	750.01
353.14 K, 9866 kPa, m1 = 0.1696	772.71
353.14 K, 9945 kPa, m1 = 1.887	1009.26
353.14 K, 19983 kPa, m1 = 0.1696	783.31
353.14 K, 25841 kPa, m1 = 0.3043	808.62
353.14 K, 34738 kPa, m1 = 1.887	1033.52
353.14 K, 39852 kPa, m1 = 0.3043	820.61
353.15 K, 1306 kPa, m1 = 0.9305	871.91
353.15 K, 1451 kPa, m1 = 0.05681	745.7
353.15 K, 1574 kPa, m1 = 0.3043	782.83
353.15 K, 1687 kPa, m1 = 1.49	948.01
353.15 K, 5032 kPa, m1 = 1.49	951.99
353.15 K, 10024 kPa, m1 = 0.05681	755.67
353.15 K, 10024 kPa, m1 = 1.49	957.68
353.15 K, 10145 kPa, m1 = 0.3043	792.67
353.15 K, 15624 kPa, m1 = 1.49	963.72
353.15 K, 19924 kPa, m1 = 0.05681	766.16
353.15 K, 19957 kPa, m1 = 1.49	968.14
353.15 K, 20412 kPa, m1 = 0.3043	803.4
353.15 K, 25214 kPa, m1 = 1.49	973.21
353.15 K, 29658 kPa, m1 = 1.49	977.25
353.15 K, 29952 kPa, m1 = 0.3043	812.36
353.15 K, 30014 kPa, m1 = 0.05681	775.72
353.15 K, 34984 kPa, m1 = 1.49	981.78
353.15 K, 39958 kPa, m1 = 1.49	985.72
353.15 K, 39984 kPa, m1 = 0.05681	784.05
353.16 K, 4839 kPa, m1 = 0.1696	767.04
353.16 K, 9987 kPa, m1 = 0.9305	881.84
353.16 K, 15412 kPa, m1 = 0.05681	761.52
353.16 K, 15624 kPa, m1 = 0.3043	798.54
353.16 K, 24888 kPa, m1 = 0.1696	788.05
353.16 K, 34658 kPa, m1 = 0.3043	816.41
353.16 K, 34826 kPa, m1 = 0.4384	835.96
353.16 K, 39714 kPa, m1 = 1.887	1037.55
353.17 K, 4861 kPa, m1 = 0.4384	806.08
353.17 K, 14799 kPa, m1 = 0.1696	778.02
353.17 K, 14872 kPa, m1 = 1.887	1014.63
353.17 K, 19935 kPa, m1 = 0.9305	892.23
353.17 K, 24932 kPa, m1 = 0.05681	771.05
353.17 K, 29746 kPa, m1 = 0.1696	792.5
353.17 K, 39702 kPa, m1 = 0.1696	800.82
353.18 K, 9743 kPa, m1 = 0.4384	811.63
353.18 K, 14964 kPa, m1 = 0.9305	887.17
353.18 K, 29738 kPa, m1 = 0.9305	901.43
353.19 K, 1518 kPa, m1 = 0.4384	802.12
353.19 K, 19828 kPa, m1 = 1.887	1019.76
353.19 K, 24834 kPa, m1 = 0.9305	896.96
353.19 K, 39796 kPa, m1 = 0.4384	839.94
353.2 K, 1878 kPa, m1 = 1.887	999.87
353.2 K, 4878 kPa, m1 = 1.887	1003.45
353.2 K, 24815 kPa, m1 = 1.887	1024.64
353.21 K, 14513 kPa, m1 = 0.4384	816.8
373.12 K, 1190 kPa, m1 = 0.4384	780.46
373.12 K, 1697 kPa, m1 = 1.887	977.46
373.12 K, 5014 kPa, m1 = 1.887	981.85
373.12 K, 9878 kPa, m1 = 0.4384	791.75
373.12 K, 29863 kPa, m1 = 0.1696	775.41
373.12 K, 29926 kPa, m1 = 1.887	1010.28
373.12 K, 29956 kPa, m1 = 0.4384	814.15
373.13 K, 4952 kPa, m1 = 0.05681	729.35
373.13 K, 4965 kPa, m1 = 0.1696	746.64
373.13 K, 9897 kPa, m1 = 1.887	988.07
373.13 K, 14946 kPa, m1 = 1.887	994.16
373.13 K, 20065 kPa, m1 = 1.887	1000
373.13 K, 24795 kPa, m1 = 0.4384	808.88
373.13 K, 24847 kPa, m1 = 0.1696	770.29
373.14 K, 1612 kPa, m1 = 0.1696	742.13
